Assay results from patent publication US10316049B2, “Tank-binding kinase inhibitor compounds” (Gilead Sciences, Inc., priority 2015, dated 2019).

Experiments:
TBK1 = target: T1, TBK1 (Homo sapiens, UniProt Q9UHD2); assay: TR-FRET enzymatic activity assay, TBK1; type: biochemical; note: full length recombinant TBK1 at 2.5 nM
T1 construct: TBK1 and IKKε were expressed and purified as full length recombinant proteins; made in house
T1 sequence (Q9UHD2 1-729): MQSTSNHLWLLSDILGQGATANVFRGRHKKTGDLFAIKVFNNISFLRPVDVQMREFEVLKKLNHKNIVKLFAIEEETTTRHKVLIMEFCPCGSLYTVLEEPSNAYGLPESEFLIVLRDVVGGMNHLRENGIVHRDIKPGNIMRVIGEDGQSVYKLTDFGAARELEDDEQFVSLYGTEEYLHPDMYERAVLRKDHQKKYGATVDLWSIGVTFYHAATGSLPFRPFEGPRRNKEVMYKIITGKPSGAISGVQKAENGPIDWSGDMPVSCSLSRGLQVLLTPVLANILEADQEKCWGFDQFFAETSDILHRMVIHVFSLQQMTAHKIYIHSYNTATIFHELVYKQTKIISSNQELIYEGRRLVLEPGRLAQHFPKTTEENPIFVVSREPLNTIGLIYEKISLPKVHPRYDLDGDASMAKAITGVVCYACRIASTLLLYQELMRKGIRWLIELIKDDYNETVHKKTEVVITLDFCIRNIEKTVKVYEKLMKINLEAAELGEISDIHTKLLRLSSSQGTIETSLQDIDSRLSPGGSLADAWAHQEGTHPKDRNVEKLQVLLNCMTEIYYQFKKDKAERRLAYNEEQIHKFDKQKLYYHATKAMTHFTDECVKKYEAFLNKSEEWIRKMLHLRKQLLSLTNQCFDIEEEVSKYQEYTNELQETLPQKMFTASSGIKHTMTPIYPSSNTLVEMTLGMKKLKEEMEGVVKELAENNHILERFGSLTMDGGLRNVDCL
Method: (§1) Biological Assay for TBK1 and IKKε:
(§2) Enzymatic activity of IKKε and TBK1 was measured using a homogeneous time resolved fluorescence resonance energy transfer (TR-FRET) assay that monitors enzyme dependent phosphorylation of a biotinylated serine/threonine peptide substrate. An increase in the amount of phosphorylated peptide results in an increase in TR-FRET signal. TBK1 and IKKε were expressed and purified as full length recombinant proteins. Detection reagents for the assay were purchased from Cisbio. […] After an assay reaction time of 240 minutes at 25° C., reactions were terminated with EDTA.
(§3) Amount of phosphorylated peptide was determined by the addition of 125 nM streptavidin XL665 and europium cryptate labeled anti-phospho monoclonal antibody and the resulting TR-FRET signal was recorded on an Envision plate reader (Ex: 340 nm; Em: 615/665 nm; 100 μs delay and 200 μs read window). Data was normalized based on a positive (1 μM Staurosporine) and negative (DMSO) controls and IC50 values calculated from the fit of the dose-response curves to a four-parameter equation. All IC50 values represent geometric mean values of a minimum of four determinations. These assays generally produced results within 3-fold of the reported mean.

IKKε = target: T2, IKKε (Homo sapiens, UniProt Q14164); assay: TR-FRET enzymatic activity assay, IKKε; type: biochemical; settings: read-out: IKKϵ IC50; note: full length recombinant IKKε at 0.3 nM
T2 construct: TBK1 and IKKε were expressed and purified as full length recombinant proteins; made in house
T2 sequence (Q14164 1-716): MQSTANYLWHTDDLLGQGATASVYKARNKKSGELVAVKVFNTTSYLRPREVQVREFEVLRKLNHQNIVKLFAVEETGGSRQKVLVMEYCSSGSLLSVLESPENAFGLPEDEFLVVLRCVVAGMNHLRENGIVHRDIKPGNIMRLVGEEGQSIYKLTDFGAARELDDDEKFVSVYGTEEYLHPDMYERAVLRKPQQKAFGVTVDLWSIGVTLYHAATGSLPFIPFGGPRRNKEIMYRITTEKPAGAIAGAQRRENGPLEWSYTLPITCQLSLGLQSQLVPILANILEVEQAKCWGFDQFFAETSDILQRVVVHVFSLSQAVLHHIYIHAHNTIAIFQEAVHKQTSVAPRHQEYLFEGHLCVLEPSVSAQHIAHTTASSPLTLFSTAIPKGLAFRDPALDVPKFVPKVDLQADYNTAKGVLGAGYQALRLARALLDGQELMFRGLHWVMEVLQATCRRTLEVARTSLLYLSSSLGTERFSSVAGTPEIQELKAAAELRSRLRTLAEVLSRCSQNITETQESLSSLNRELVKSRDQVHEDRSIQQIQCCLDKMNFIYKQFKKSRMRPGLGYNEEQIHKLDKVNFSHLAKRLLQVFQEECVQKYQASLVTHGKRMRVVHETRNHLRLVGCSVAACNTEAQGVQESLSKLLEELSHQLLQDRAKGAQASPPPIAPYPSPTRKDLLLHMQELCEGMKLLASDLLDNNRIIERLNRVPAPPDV
Method: as §1
as §2, with “An increase in the amount of phosphorylated peptide results in an increase in TR-FRET signal.” left out
as §3, with “determinations.” for “determinations. These assays generally produced results within 3-fold of the reported mean.”

| Compound | IC50 (TBK1) | IC50 (IKKε) |
| --- | --- | --- |
| N#Cc1cc(-c2ccnc(NC(=O)C3CC3(F)F)c2)ccc1O[C@H]1CCN(C(=O)CO)C[C@H]1F (stereo partly drawn) [Example 58, N-(4-(3-cyano-4-(((3R,4S)-3-fluoro-1-(2-hydroxyacetyl)piperidin-4-yl)oxy)phenyl)pyridin-2-yl)-2,2-difluorocyclopropane-1-carboxamide] | 48.6 nM | 30.1 nM |
| N#Cc1cc(-c2cc(NC(=O)[C@@H]3C[C@H]3c3cccnc3)ncn2)ccc1O[C@H]1CCN(C(=O)CO)CC1(F)F [Example 129, (1,2-Trans)-N-(6-(3-cyano-4-(((S)-3,3-difluoro-1-(2-hydroxyacetyl)piperidin-4-yl)oxy)phenyl)pyrimidin-4-yl)-2-(pyridin-3-yl)cyclopropane-1-carboxamide] | 9.3 nM | 32.2 nM |
| N#Cc1cc(-c2ccnc(NC(=O)C3CC3)c2)ncc1O[C@H]1CCN(C(=O)CO)C[C@H]1F [Example 24, N-(4-cyano-5-(((3R,4S)-3-fluoro-1-(2-hydroxyacetyl)piperidin-4-yl)oxy)-[2,4′-bipyridin]-2′-yl)cyclopropanecarboxamide] | 86.1 nM | 192 nM |
| Cc1ncc(C(=O)N2CC[C@H](Oc3ccc(-c4cc(NC(=O)C5CC5)ncn4)cc3C#N)[C@H](F)C2)o1 [Example 107, N-(6-(3-cyano-4-(((3R,4S)-3-fluoro-1-(2-methyloxazole-5-carbonyl)piperidin-4-yl)oxy)phenyl)pyrimidin-4-yl)cyclopropanecarboxamide] | 48.9 nM | 160 nM |
| C[C@@H]1CCCN1c1ccc(-c2ccnc(NC(=O)C3CC3)c2)cc1C#N [Example 96, (R)—N-(4-(3-cyano-4-(2-methylpyrrolidin-1-yl)phenyl)pyridin-2-yl)cyclopropanecarboxamide] | 33 nM | 231 nM |
| N#Cc1cc(-c2ccnc(NC(=O)C3CC3)c2)ccc1N1CCC[C@@H]1C(N)=O [Example 95, (R)-1-(2-cyano-4-(2-(cyclopropanecarboxamido)pyridin-4-yl)phenyl)pyrrolidine-2-carboxamide] | 258 nM | > 1000 nM |
| N#Cc1cc(-c2cc(NC(=O)C3CC3)ncc2F)ccc1OC1CCOCC1 [Example 4, N-(4-(3-cyano-4-((tetrahydro-2H-pyran-4-yl)oxy)phenyl)-5-fluoropyridin-2-yl)cyclopropanecarboxamide] | 43.6 nM | 327 nM |
| C[C@H](O)C(=O)N1CC[C@H](Oc2ccc(-c3ccnc(NC(=O)C4CC4)c3)cc2C#N)[C@H](F)C1 [Example 9, N-(4-(3-cyano-4-(((3R,4S)-3-fluoro-1-((S)-2-hydroxypropanoyl)piperidin-4-yl)oxy)phenyl)pyridin-2-yl)cyclopropanecarboxamide] | 15.2 nM | 46.4 nM |
| N#Cc1cc(-c2cc(NC(=O)C3CC3)ncn2)ccc1C(=O)NCC(F)(F)F [Example 54, 2-cyano-4-(6-(cyclopropanecarboxamido)pyrimidin-4-yl)-N-(2,2,2-trifluoroethyl)benzamide] | 883 nM | > 1000 nM |
| C[C@@H]1C[C@H]1C(=O)Nc1cc(-c2ccc(O[C@H]3CCN(C(=O)CO)C[C@H]3F)c(C#N)c2)ccn1 [Example 72, (1R,2R)—N-(4-(3-cyano-4-(((3R,4S)-3-fluoro-1-(2-hydroxyacetyl)piperidin-4-yl)oxy)phenyl)pyridin-2-yl)-2-methylcyclopropane-1-carboxamide] | 16.5 nM | 43.7 nM |

The next lines start with the values.

| IC50 (TBK1) | IC50 (IKKε) | Compound |
| --- | --- | --- |
| 755 nM | > 1000 nM | N#Cc1cc(-c2ccnc(NC(=O)C3CC3)c2)ccc1N1CCC[C@H]1C(=O)O [Example 26, (2-Cyano-4-(2-(cyclopropanecarboxamido)pyridin-4-yl)phenyl)-L-proline] |
| > 1000 nM | > 1000 nM | N#Cc1cc(-c2ccnc(NC(=O)C3(O)CC3)c2)ccc1OC1CCOCC1 [Example 36, N-(4-(3-cyano-4-((tetrahydro-2H-pyran-4-yl)oxy)phenyl)pyridin-2-yl)-1-hydroxycyclopropanecarboxamide] |
| 6.1 nM | 7.1 nM | Cc1n[nH]c(C(=O)N2CC[C@H](Oc3ccc(-c4ccnc(NC(=O)C5CC5C)c4)cc3C#N)[C@H](F)C2)n1 (stereo partly drawn) [Example 75, N-(4-(3-Cyano-4-(((3R,4S)-3-fluoro-1-(3-methyl-1H-1,2,4-triazole-5-carbonyl)piperidin-4-yl)oxy)phenyl)pyridin-2-yl)-2-methylcyclopropane-1-carboxamide] |
| 66.1 nM | 160 nM | N#Cc1cc(-c2cc(NC(=O)C3CC3)ncn2)ccc1OC1CCN(C(=O)CO)CC1 [Example 23, N-(6-(3-cyano-4-((1-(2-hydroxyacetyl)piperidin-4-yl)oxy)phenyl)pyrimidin-4-yl)cyclopropanecarboxamide] |
| 41.5 nM | 387 nM | N#Cc1cc(-c2cc(NC(=O)C3CC3)ncn2)ccc1O[C@H]1CCN(C(=O)CCO)CC1(F)F [Example 154, (S)—N-(6-(3-cyano-4-((3,3-difluoro-1-(3-hydroxypropanoyl)piperidin-4-yl)oxy)phenyl)pyrimidin-4-yl)cyclopropanecarboxamide] |
| 5.9 nM |  | Cn1cc([C@H]2C[C@@H]2C(=O)Nc2cc(-c3ccc(O[C@H]4CCN(C(=O)CO)CC4(F)F)c(C#N)c3)ncn2)cn1 [Example 138, (1S,2S)—N-(6-(3-cyano-4-(((S)-3,3-difluoro-1-(2-hydroxyacetyl)piperidin-4-yl)oxy)phenyl)pyrimidin-4-yl)-2-(1-methyl-1H-pyrazol-4-yl)cyclopropane-1-carboxamide] |
| 21.4 nM |  | Cn1cc([C@@H]2C[C@H]2C(=O)Nc2cc(-c3ccc(O[C@H]4CCN(C(=O)CO)CC4(F)F)c(C#N)c3)ncn2)cn1 [Example 137, (1R,2R)—N-(6-(3-cyano-4-(((S)-3,3-difluoro-1-(2-hydroxyacetyl)piperidin-4-yl)oxy)phenyl)pyrimidin-4-yl)-2-(1-methyl-1H-pyrazol-4-yl)cyclopropane-1-carboxamide] |
| 7.2 nM |  | Cn1cc([C@@H]2C[C@H]2C(=O)Nc2cc(-c3ccc(O[C@H]4CCN(C(=O)CO)CC4(F)F)c(C#N)c3)ncn2)cn1 [Example 128, (1,2-Trans)-N-(6-(3-cyano-4-(((S)-3,3-difluoro-1-(2-hydroxyacetyl)piperidin-4-yl)oxy)phenyl)pyrimidin-4-yl)-2-(1-methyl-1H-pyrazol-4-yl)cyclopropane-1-carboxamide] |
